Data set [1] in a line: effect exerted on food intake, in rats. Format: in vivo, rat.
Data set [2] deals with noradrenaline release. Conditions: background; cited from earlier work.
A short description of data set [3]: psychostimulant effect in rats: shuttle-box test. The class given is in vivo, rat.
A short description of data set [4]: psychostimulant effect in rats: modified jumping test. The class given is in vivo, rat.
Data set [5] relates to nictitating membrane. Kind of data set: noradrenaline releasing effect in cats (in vivo), contraction of the nictitating membrane. Conditions: anesthetized cat, PEA i.p.
Data set [6] in a line: in vivo. Particulars: rat.
Data set [7] has as its system isolated rat striatum. In words: dopaminergic activity increasing effect on isolated rat striatum preparations, in vitro. The text has this:
(§1) Determination of the dopamineric activity increasing effect, on isolated rat striatum preparations
(§2) Method: Kerecsen et al: Chromatography, the State of the Art, (Eds. Kalasz, Ettre) Akademiai Kiaoo Budepest (1985) page 195-203.

For data set [8], the system named is tetrabenazine-induced depression. Kind of data set: antagonism of tetrabenazine-induced depression in learning test: jumping test. The class given is in vivo, rat. From the text:
II/3 Determination of antagonism of tetrabenazine-induced depression, in learning test, on rats
a) Jumping test. Method: J. Knoll, B. Knoll: Arzneimittel Forschung 8, 339 (1958), 9, 633 (1959).

Data set [9] has as its system rabbit pulmonary artery, tyramine-induced noradrenaline release. Conditions: read-out: IC50, inhibition of noradrenaline releasing effect of tyramine.
The nature of data set [10]: effect exerted on motility, on rats (spontaneous passings in shuttle-box). The class given is in vivo, rat. The method, then: II/4. Determination of effect exerted on motility, on rats
The test is carried out in a Shuttle-box without introducing current and light. The number of spontaneous passings over from side of the box to the other is registered and summarized by the apparatus for an observation period of 30 minutes. The test is carried out on groups comprising […] CFY rats of both sexes weighing […]. The test compound of the Formula I is added prior to the test subcutaneously, together with tetrabenazine and desmethyl-imiprmine (DMI) reference compounds, respectively.

Data set [11] concerns noradrenaline uptake, nucleus free supernatant of rat cortex. In words: 3H-noradrenaline uptake in the nucleus free supernatant of rat cortex. The class given is biochemical. Conditions: 37° C., 5 minutes. Here is the method: II/7. Determination of ^3 H-noradrenaine uptake in the nucleus free supernatant of rat cortex (in vivo)
The cortex is homogenized in 0.32M saccharose with a teflon potter, the cell nucleus is sedimented by centrifuging at 0° C. with 1000 g for 20 minutes; the supernatant thus obtained is used for the test. The intake is accomplished in a KrebsHeinseleit solution saturated with carbogen, in a final volume of 1 ml, at a ^3 H-noradrenaline concentration of […]. Pre-incubation and incubation are carried out at 37° C. for 5 minutes each. The reaction is stopped by adding 4 ml of ice-cold Krebs solution and the tissue is separated by GF/B filtration. Non-specific uptake is determined by using 10^-4 M nisoxetine at 37° C. The radioactivity of the GF/B filter-paper is determined by liquid scintillation measurement in a toluene-PPO-POPOPtritone mixture.

Data set [12] has as its system isolated rat striatum. In words: dopaminergic activity increasing effect on isolated rat striatum preparations, ex vivo. Here is the method:
as §1, §2
In ex vivo tests the animals are treated s.c. for 3 weeks and the organ is removed 2 hours after administering the last injection.

Data set [13] concerns neuronal uptake of indirectly acting endogenic sympathomimetic amines. Particulars: background; cited from earlier work.

With `CC(N)Cc1ccccc1` (centres unmarked) [amphetamine, reference compound], in data set [1] (rats fasted for 96 hours, 2-5 mg/kg, for 3-4 hours), the food intake result was “completely inhibited”. Further, the anorectic effect entry in [1] (well-fed satiated rats, 1 mg/kg) was “exhibits an anorectic effect”. For the same molecule, the noradrenaline releasing effect result in data set [2] was “strong and long lasting”. For the same molecule, the intersignal reaction entry in data set [3] (1 mg/kg s.c. daily) is recorded as “disproportionately high intersignal reaction”. Further, in [3] (1 mg/kg s.c. daily, five days of observation), the “acquisition of a conditioned reaction and its retention” value was “significantly increases the acquizition of a conditioned reaction and its retention”. Also, in data set [3] (5-10 mg/kg), the general motility result is listed as “extremely high general motility increasing effect”. Further, the learning and retention result was “deteriorate” in data set [4] (larger doses, above 3 mg/kg) and “improve” in data set [4] (small doses, up to 1-2 mg/kg). For the same molecule, the “contraction of the nictitating membrane” value in data set [5] is on record as “contraction of long duration”.

Usually LD50 stands for the dose at which mortality reaches 50%. A high value points to lower toxicity. In general, IC50 refers to the concentration that inhibits the measured activity by half. With `CCCNC(CC)Cc1ccccc1` (centres unmarked) [Example 6, N-propyl-1-phenyl-2-butyl-amine], the LD50 in [6] (iv) turned out to be 40 mg/kg; in data set [6] (po), 300 mg/kg; in data set [6] (sc), 140 mg/kg. For the same molecule, the “DOPAC concentration of the bath of the organ” value was 172 pmol/g/min in data set [7] (dose 0.3); 190 pmol/g/min in [7] (dose 1.0); 331 pmol/g/min in [7] (dose 3.0); 537 pmol/g/min in data set [7] (dose 10.0); 222 pmol/g/min in data set [12] (daily dose 0.25, s.c. 3 weeks); 223 pmol/g/min in data set [12] (daily dose 5.0, s.c. 3 weeks). In addition, the “dopamine (DA) concentration of the bath of the organ” value is 214 pmol/g/min in [7] (dose 0.3); 366 pmol/g/min in [7] (dose 1.0); 290 pmol/g/min in data set [7] (dose 3.0); 477 pmol/g/min in data set [7] (dose 10.0); 257 pmol/g/min in data set [12] (daily dose 0.25, s.c. 3 weeks); 189 pmol/g/min in data set [12] (daily dose 5.0, s.c. 3 weeks). Also, the food intake result was “does not influence the food intake” in [1] (rats fasted for 96 hours, similar dose (15 mg/kg)) and “does not change food intake” in data set [1] (well-fed satiated rats, 15 mg/kg p.o. or s.c.). Moreover, the “antagonism of the depressive effect of tetrabenazine” value in data set [8] (15 mg/kg) is given as “entirely antagonized”. The “inhibition of the solid conditioned reflex” value in data set [8] (15 mg/kg (high doses)) is listed as “can not be inhibited”. Moreover, the values for the IC50 in [9] and in data set [11] were 346 nM and 500 nM, respectively. In addition, the “antagonism of motility inhibiting effect of 1 mg/kg of tetrabenazine” value in data set [10] (2.5 mg/kg s.c.) was “significantly antagonized”. Besides, the motility entry in data set [10] (10 mg/kg s.c., 30 minutes observation) was “do not increase motility”.

Regarding `CN[C@@H](C)Cc1ccccc1` [methamphetamine], the “inhibition of neuronal uptake of indirectly acting endogenic sympathomimetic amines” value in data set [13] was “inhibits the neuronal uptake of indirectly acting endogenic sympathomimetic amines to a significant extent”. In addition, the noradrenaline releasing effect result in data set [2] was “strong and long lasting”. In addition, the “contraction of the nictitating membrane” value in [5] is on record as “contraction of long duration”.

The values are drawn from patent US5075338A (priority 1986, dated 1991).
